# Assay results published in ChEMBL document CHEMBL1143690, “The effects of N-terminal part modification of arginine vasopressin analogues with 2-aminoindane-2-carboxylic acid: a highly potent V2 agonist” (J Med Chem, 2007).
# The source made the active and inactive calls. No cut-off for these calls is given here. Positions of bridges follow the written chain, without caps; N, C: chain ends. Non-standard residues stand in square brackets, D forms with d. Residues, ends and D or L forms follow the SMILES beside them. Aic = NC1(C(=O)O)Cc2ccccc2C1
# Assays:
# Rattus norvegicus [1] = species on record: Rattus norvegicus; experiment: In vitro uterotonic activity in Wistar rat oxytocic uterus in absence of Mg2+; type: functional; conditions: for Kb: read-out: pA2 (converted)
# Rattus norvegicus [2] = species on record: Rattus norvegicus; experiment: Effect on arterial blood pressure in Wistar rat in pressor test; type: functional, organism-based; conditions: for Kb: Rattus norvegicus, Wistar, Arterial blood, read-out: pA2 (converted)
# Rattus norvegicus [3] = experiment: Antidiuretic activity in sc dosed conscious Wistar rat in an antidiuresis time of t1/2 200 mins relative to AVP; type: functional
# Rattus norvegicus [4] = experiment: Antidiuretic activity in sc dosed conscious Wistar rat in an antidiuresis time of t1/2 60 mins relative to AVP; type: functional
# Rattus norvegicus [5] = experiment: Antidiuretic activity in sc dosed conscious Wistar rat in an antidiuresis time of t1/2 60 mins relative to dDAVP; type: functional
# Rattus norvegicus [6] = experiment: Antidiuretic activity in sc dosed conscious Wistar rat in an antidiuresis time of t1/2 200 mins relative to dDAVP; type: functional
Structure (SMILES),Kb (Rattus norvegicus [1]),Activity (Rattus norvegicus [2]),Activity (Rattus norvegicus [3]),Activity (Rattus norvegicus [4]),Activity (Rattus norvegicus [5]),Activity (Rattus norvegicus [6]),other results
NC(=O)CC[C@@H]1NC(=O)[C@H](Cc2ccccc2)NC(=O)C2(Cc3ccccc3C2)NC(=O)CCSSC[C@@H](C(=O)N2CCC[C@H]2C(=O)N[C@H](CCCN=C(N)N)C(=O)NCC(N)=O)NC(=O)[C@H](CC(N)=O)NC1=O [listing 1 of 2 here],49 nM,–,–,–,–,–,Kb (Rattus norvegicus [2]): 2510 nM
NC(=O)CC[C@@H]1NC(=O)C2(Cc3ccccc3C2)NC(=O)[C@H](Cc2ccc(O)cc2)NC(=O)CCSSC[C@H](C(=O)N2CCC[C@H]2C(=O)N[C@@H](CCCN=C(N)N)C(=O)NCC(N)=O)NC(=O)[C@H](CC(N)=O)NC1=O,–,inactive,–,–,–,–,Activity (Rattus norvegicus [1]): inactive; Activity (Rattus norvegicus [3]; Urine): inactive; Activity (Rattus norvegicus [4]; Urine): inactive; Activity (Rattus norvegicus [5]; Urine): inactive; Activity (Rattus norvegicus [6]; Urine): inactive
NC(=O)CC[C@@H]1NC(=O)[C@H](Cc2ccccc2)NC(=O)C2(Cc3ccccc3C2)NC(=O)[C@@H](N)CSSC[C@@H](C(=O)N2CCC[C@H]2C(=O)N[C@H](CCCN=C(N)N)C(=O)NCC(N)=O)NC(=O)[C@H](CC(N)=O)NC1=O [listing 1 of 2 here],138 nM,–,–,–,–,–,–
NC(=O)CC[C@@H]1NC(=O)[C@H](Cc2ccccc2)NC(=O)C2(Cc3ccccc3C2)NC(=O)CCSSC[C@@H](C(=O)N2CCC[C@H]2C(=O)N[C@H](CCCN=C(N)N)C(=O)NCC(N)=O)NC(=O)[C@H](CC(N)=O)NC1=O [listing 2 of 2 here],–,–,45000 IU/mg,450 IU/mg,10%,10%,–
CC(C)[C@@H]1NC(=O)[C@H](Cc2ccccc2)NC(=O)C2(Cc3ccccc3C2)NC(=O)[C@@H](N)CSSC[C@@H](C(=O)N2CCC[C@H]2C(=O)N[C@@H](CCCN=C(N)N)C(=O)NCC(N)=O)NC(=O)[C@H](CC(N)=O)NC1=O (H-C[Aic]FVNCPRG-NH2; disulfide 1-6) [listing 1 of 2 here],–,0 IU/mg,45000 IU/mg,450 IU/mg,10%,10%,–
NC(=O)CC[C@@H]1NC(=O)[C@H](Cc2ccccc2)NC(=O)C2(Cc3ccccc3C2)NC(=O)[C@@H](N)CSSC[C@@H](C(=O)N2CCC[C@H]2C(=O)N[C@@H](CCCN=C(N)N)C(=O)NCC(N)=O)NC(=O)[C@H](CC(N)=O)NC1=O [listing 1 of 2 here],53.7 nM,–,–,–,–,–,–
NC(=O)CC[C@@H]1NC(=O)[C@H](Cc2ccccc2)NC(=O)C2(Cc3ccccc3C2)NC(=O)CCSSC[C@@H](C(=O)N2CCC[C@H]2C(=O)N[C@@H](CCCN=C(N)N)C(=O)NCC(N)=O)NC(=O)[C@H](CC(N)=O)NC1=O [listing 1 of 2 here],–,5.3 IU/mg,45000 IU/mg,450 IU/mg,10%,10%,–
CC(C)[C@@H]1NC(=O)[C@H](Cc2ccccc2)NC(=O)C2(Cc3ccccc3C2)NC(=O)CCSSC[C@@H](C(=O)N2CCC[C@H]2C(=O)N[C@H](CCCN=C(N)N)C(=O)NCC(N)=O)NC(=O)[C@H](CC(N)=O)NC1=O [listing 1 of 2 here],–,–,450000 IU/mg,4500 IU/mg,50%,100%,–
CC(C)[C@@H]1NC(=O)[C@H](Cc2ccccc2)NC(=O)C2(Cc3ccccc3C2)NC(=O)CCSSC[C@@H](C(=O)N2CCC[C@H]2C(=O)N[C@H](CCCN=C(N)N)C(=O)NCC(N)=O)NC(=O)[C@H](CC(N)=O)NC1=O [listing 2 of 2 here],8.71 nM,–,–,–,–,–,Kb (Rattus norvegicus [2]): 562 nM
CC(C)[C@@H]1NC(=O)[C@H](Cc2ccccc2)NC(=O)C2(CCCCC2)NC(=O)CCSSC[C@@H](C(=O)N2CCC[C@H]2C(=O)N[C@H](CCCN=C(N)N)C(=O)NCC(N)=O)NC(=O)[C@H](CC(N)=O)NC1=O,15.5 nM,–,50000 IU/mg,4500 IU/mg,50%,10%,Kb (Rattus norvegicus [2]): 724 nM
NC(=O)CC[C@@H]1NC(=O)C2(Cc3ccccc3C2)NC(=O)[C@H](Cc2ccc(O)cc2)NC(=O)[C@H](N)CSSC[C@H](C(=O)N2CCC[C@H]2C(=O)N[C@H](CCCN=C(N)N)C(=O)NCC(N)=O)NC(=O)[C@H](CC(N)=O)NC1=O,–,inactive,–,–,–,–,Activity (Rattus norvegicus [1]): inactive; Activity (Rattus norvegicus [3]; Urine): inactive; Activity (Rattus norvegicus [4]; Urine): inactive; Activity (Rattus norvegicus [5]; Urine): inactive; Activity (Rattus norvegicus [6]; Urine): inactive
NC(=O)CC[C@@H]1NC(=O)[C@H](Cc2ccccc2)NC(=O)C2(Cc3ccccc3C2)NC(=O)[C@@H](N)CSSC[C@@H](C(=O)N2CCC[C@H]2C(=O)N[C@@H](CCCN=C(N)N)C(=O)NCC(N)=O)NC(=O)[C@H](CC(N)=O)NC1=O [listing 2 of 2 here],–,9.4 IU/mg,45000 IU/mg,450 IU/mg,10%,10%,–
NC(=O)CC[C@@H]1NC(=O)[C@H](Cc2ccccc2)NC(=O)C2(Cc3ccccc3C2)NC(=O)CCSSC[C@@H](C(=O)N2CCC[C@H]2C(=O)N[C@@H](CCCN=C(N)N)C(=O)NCC(N)=O)NC(=O)[C@H](CC(N)=O)NC1=O [listing 2 of 2 here],31.6 nM,–,–,–,–,–,–
NC(=O)CC[C@@H]1NC(=O)[C@H](Cc2ccccc2)NC(=O)C2(Cc3ccccc3C2)NC(=O)[C@@H](N)CSSC[C@@H](C(=O)N2CCC[C@H]2C(=O)N[C@H](CCCN=C(N)N)C(=O)NCC(N)=O)NC(=O)[C@H](CC(N)=O)NC1=O [listing 2 of 2 here],–,0 IU/mg,4500 IU/mg,45 IU/mg,1%,1%,–
CC(C)[C@@H]1NC(=O)[C@H](Cc2ccccc2)NC(=O)C2(Cc3ccccc3C2)NC(=O)[C@@H](N)CSSC[C@@H](C(=O)N2CCC[C@H]2C(=O)N[C@@H](CCCN=C(N)N)C(=O)NCC(N)=O)NC(=O)[C@H](CC(N)=O)NC1=O (H-C[Aic]FVNCPRG-NH2; disulfide 1-6) [listing 2 of 2 here],11.7 nM,–,–,–,–,–,–
NC(=O)CC[C@@H]1NC(=O)C2(Cc3ccccc3C2)NC(=O)[C@H](Cc2ccc(O)cc2)NC(=O)[C@H](N)CSSC[C@H](C(=O)N2CCC[C@H]2C(=O)N[C@@H](CCCN=C(N)N)C(=O)NCC(N)=O)NC(=O)[C@H](CC(N)=O)NC1=O,–,inactive,–,–,–,–,Activity (Rattus norvegicus [1]): inactive; Activity (Rattus norvegicus [3]; Urine): inactive; Activity (Rattus norvegicus [4]; Urine): inactive; Activity (Rattus norvegicus [5]; Urine): inactive; Activity (Rattus norvegicus [6]; Urine): inactive
